{
  "source": "patent US20150038707A1",
  "about": "“PROCESS FOR MAKING CGRP RECEPTOR ANTAGONISTS” (Merck Sharp & Dohme Corp., priority 2012, published 2015)",
  "key": {"Susceptible An. Gambiae": {"system": "Susceptible An. Gambiae", "experiment": "Bottle toxicity assay (Example 8), susceptible mosquitoes", "format": "in vivo, Anopheles gambiae", "experimental": "Several compounds were tested to determine their toxic effect on knockdown resistant Anopheles gambiae mosquitoes and susceptible mosquitoes. Acetone and different amounts of pesticides were added to 250 ml bottles. In one bottle, only acetone was added as a control. The bottles were rotated in all directions while uncapped until all acetone was evaporated and the insecticide was coated onto the inside surfaces of the bottle. A number of knockdown resistant Anopheles gambiae mosquitoes were added to the bottle. The number of dead mosquitoes was recorded at 1 hour and 24 hours."}, "[1]": {"system": "Ae. Aegypti, Isla Mujer strain (metabolically pyrethroid resistant)", "experiment": "Contact irritancy on metabolically resistant mosquitoes (Example 5)", "format": "in vivo", "experimental": "(§1) Four compounds of formula (I) were tested for contact irritancy (i.e., movement away from the source after physical contact) at low doses on female Aedes aegypti (Thailand strain) mosquitoes. The contact irritant response was determined by use of the contact irritant assay disclosed by Grieco et al. in “A New Classification System for the Actions of IRS Chemicals Traditionally Used for Malaria Control,” Plos One, Issue 8 (2007) (available at www.plosone.org). The assay used was a cylindrical assembly that included a metal treatment end to which 10 mosquitoes were introduced and a clear receiving chamber. The treatment end included a netting strip (nylon organdy) that was treated with the insecticide of interest at the relevant dose. A butterfly valve separated the treatment end from the remainder of the assembly.\n(§2) Each composition was applied to the netting strip at a varied dose via a 1.5 ml acetone solution. Four (4) treatment concentrations were used—0.0025 nmol/cm^2, 0.025 nmol/cm^2, 0.25 nmol/cm^2 and 2.5 nmol/cm^2. Netting was allowed to dry for 15 minutes prior to placement in the cylinder. Control assays were performed with netting treated with acetone only.\n(§3) For each run, 10 mosquitoes were transferred into the treatment end of the assembly and, after 30 seconds, the butterfly valve was opened. The valve was closed after 10 minutes and the number of mosquitoes in the clear end (i.e., the number of escaped mosquitoes) was tested.\n(§4) The contact irritancy protocol of Example 2 was used to determine contact irritancy against mosquitoes (Ae. Aegypti) that had acquired metabolic resistance against pyrethroids. Alphacypermethrin and transfluthrin were also tested. Three mosquito strains were tested—Houston which is pyrethroid susceptible, That which is pyrethroid tolerant and Isla Mujer which is metabolically pyrethroid resistant."}, "[2]": {"system": "Ae. aegypti Isla mujeres strain (metabolically pyrethroid resistant)", "experiment": "Toxicity assay on treated netting (Example 7), Isla mujeres strain", "format": "in vivo", "experimental": "(§5) Several compounds were tested to determine their toxic effect on Ae. aegypti mosquitoes. Three mosquito strains were tested—Houston which is pyrethroid susceptible, That which is pyrethroid tolerant and Isla Mujer which is metabolically pyrethroid resistant.\n(§6) The toxicity assay involved a single chamber to which treated netting was added. Twenty (20) mosquitoes were transferred to the chamber. After 1 hour, the number of knocked down mosquitoes was recorded and all mosquitoes were transferred to holding cartoons. The mosquitoes were given a 10% sucrose-soaked cotton ball and returned to the insectary. Mortaility was measured after 24 hours. A control assay using acetone-treated netting was used. Six replicates were performed at each treatment concentration."}, "[3]": {"system": "Ae. aegypti Thai strain (pyrethroid tolerant)", "experiment": "Toxicity assay on treated netting (Example 7), Thai strain", "format": "in vivo", "experimental": "as §5, §6"}, "[4]": {"system": "Ae. Aegypti strains Houston, That and Isla Mujer", "experiment": "Spatial repellency on metabolically resistant mosquitoes (Example 6)", "format": "in vivo", "experimental": "(§7) The four compounds of formula I described in Example 2 were tested for spatial repellency (directed movement away from the chemical source without the insect making physical contact with the treated surface) at low doses on female Aedes aegypti (Thailand strain) mosquitoes. The spatial repellency response was determined by use of the spatial repellency assay disclosed by Grieco et al. in “A New Classification System for the Actions of IRS Chemicals Traditionally Used for Malaria Control” in Plos One, Issue 8 (2007) (available at www.plosone.org) which is incorporated herein by reference for all relevant and consistent purposes. The assay used was a cylindrical assembly that included a treatment chamber at one end and a control chamber at the other end. The treatment chamber included a netting strip (nylon organdy) that was treated with the insecticide of interest at the relevant dose. The treatment chamber and control chamber were connected by a clear cylinder and were separated from the clear cylinder by butterfly valves. Twenty (20) mosquitoes were introduced into the clear central chamber and the butterfly valves were opened after 30 seconds. After 10 minutes, the valves were closed and the number of mosquitoes in each chamber was counted.\nThe spatial repellency protocol of Example 3 was used to determine spatial repellency against mosquitoes (Ae. Aegypti) that had acquired metabolic resistance against pyrethroids. DDT and transfluthrin were also tested. Three mosquito strains were tested—Houston which is pyrethroid susceptible, That which is pyrethroid tolerant and Isla Mujer which is metabolically pyrethroid resistant."}, "[5]": {"system": "Ae. aegypti Houston strain (pyrethroid susceptible)", "experiment": "Toxicity assay on treated netting (Example 7), Houston strain", "format": "in vivo", "experimental": "as §5, §6"}, "[6]": {"system": "female Aedes aegypti (Thailand strain) mosquitoes", "experiment": "Contact irritancy and spatial repellency screening (Example 4)", "format": "in vivo", "details": "Dosage 25 nmol/cm^2; mapped with 3000 other compounds", "experimental": "as §1, §7\nDosage was 25 nmol/cm^2. Several known compounds were also mapped for comparison—alphacypermethrin, cypermethrin, propoxur, bendiocarb, permethrin, SS220, DDT, deet and chlorpyrifos."}, "[7]": {"system": "female Aedes aegypti (Thailand strain) mosquitoes", "experiment": "Contact irritancy assay on mosquitoes (Example 2)", "format": "in vivo", "details": "netting treated at 0.0025-2.5 nmol/cm^2; 10 minutes", "experimental": "as §1, §2, §3"}, "[8]": {"system": "Ae. Aegypti, That strain (pyrethroid tolerant)", "experiment": "Contact irritancy on pyrethroid tolerant mosquitoes (Example 5)", "format": "in vivo", "experimental": "as §1, §2, §3, §4"}, "[9]": {"details": "Dose 0.025 nm/cm^2, Time 1 hour"}, "[10]": {"details": "Dose 0.025 nm/cm^2, Time 24 hours"}, "[11]": {"details": "Dose 0.0725 nm/cm^2, Time 1 hour"}, "[12]": {"details": "Dose 0.0725 nm/cm^2, Time 24 hours"}, "[13]": {"details": "Dose 0.125 nm/cm^2, Time 1 hour"}, "[14]": {"details": "Dose 0.125 nm/cm^2, Time 24 hours"}, "[15]": {"details": "Dose 0.25 nm/cm^2, Time 24 hours"}, "[16]": {"details": "Dose 2.5 nm/cm^2, Time 24 hours"}},
  "data": [
    {"compound": "CC1(C)C(C=C(Cl)Cl)C1C(=O)OCc1ccc(F)c(C(F)(F)F)c1F", "note": "(stereo not drawn) [Compound 1406]", "values": [
      {"measurement": "Susceptible An. Gambiae (% dead (SE))", "setting": "Susceptible An. Gambiae; Dose 0.025 μg/bottle, Strain Tested F122, Time 1 hour", "result": 100, "unit": "%"},
      {"measurement": "Susceptible An. Gambiae (% dead (SE))", "setting": "Susceptible An. Gambiae; Dose 0.025 μg/bottle, Strain Tested F122, Time 24 hours", "result": 100, "unit": "%"},
      {"measurement": "Susceptible An. Gambiae (% dead (SE))", "setting": "Susceptible An. Gambiae; Dose 0.025 μg/bottle, Strain Tested F123, Time 1 hour", "result": 100, "unit": "%"},
      {"measurement": "Susceptible An. Gambiae (% dead (SE))", "setting": "Susceptible An. Gambiae; Dose 0.025 μg/bottle, Strain Tested F123, Time 24 hours", "result": 100, "unit": "%"},
      {"measurement": "Susceptible An. Gambiae (% dead (SE))", "setting": "Susceptible An. Gambiae; Dose 0.25 μg/bottle, Strain Tested F122, Time 1 hour", "result": 100, "unit": "%"},
      {"measurement": "Susceptible An. Gambiae (% dead (SE))", "setting": "Susceptible An. Gambiae; Dose 0.25 μg/bottle, Strain Tested F122, Time 24 hours", "result": 100, "unit": "%"},
      {"measurement": "Susceptible An. Gambiae (% dead (SE))", "setting": "Susceptible An. Gambiae; Dose 0.25 μg/bottle, Strain Tested F123, Time 1 hour", "result": 100, "unit": "%"},
      {"measurement": "Susceptible An. Gambiae (% dead (SE))", "setting": "Susceptible An. Gambiae; Dose 0.25 μg/bottle, Strain Tested F123, Time 24 hours", "result": 100, "unit": "%"},
      {"measurement": "Susceptible An. Gambiae (% dead (SE))", "setting": "Susceptible An. Gambiae; Dose 2.5 μg/bottle, Strain Tested F122, Time 1 hour", "result": 100, "unit": "%"},
      {"measurement": "Susceptible An. Gambiae (% dead (SE))", "setting": "Susceptible An. Gambiae; Dose 2.5 μg/bottle, Strain Tested F122, Time 24 hours", "result": 100, "unit": "%"},
      {"measurement": "Susceptible An. Gambiae (% dead (SE))", "setting": "Susceptible An. Gambiae; Dose 2.5 μg/bottle, Strain Tested F123, Time 1 hour", "result": 100, "unit": "%"},
      {"measurement": "Susceptible An. Gambiae (% dead (SE))", "setting": "Susceptible An. Gambiae; Dose 2.5 μg/bottle, Strain Tested F123, Time 24 hours", "result": 100, "unit": "%"},
      {"measurement": "contact irritancy, resistant strain (FIG. 4)", "setting": "[1]", "result": "effective in resistant strains"},
      {"measurement": "Isla mujeres (% dead (SE))", "setting": "[2]; Dose 0.00725 nm/cm^2, Time 1 hour", "result": 0, "unit": "%"},
      {"measurement": "Isla mujeres (% dead (SE))", "setting": "[2]; Dose 0.00725 nm/cm^2, Time 24 hours", "result": 7.77, "unit": "%"},
      {"measurement": "Isla mujeres (% dead (SE))", "setting": "[2]; [9]", "result": 100, "unit": "%"},
      {"measurement": "Isla mujeres (% dead (SE))", "setting": "[2]; [10]", "result": 42.77, "unit": "%"},
      {"measurement": "Isla mujeres (% dead (SE))", "setting": "[2]; [11]", "result": 96.29, "unit": "%"},
      {"measurement": "Isla mujeres (% dead (SE))", "setting": "[2]; [12]", "result": 25.37, "unit": "%"},
      {"measurement": "Isla mujeres (% dead (SE))", "setting": "[2]; [13]", "result": 100, "unit": "%"},
      {"measurement": "Isla mujeres (% dead (SE))", "setting": "[2]; [14]", "result": 100, "unit": "%"},
      {"measurement": "Isla mujeres (% dead (SE))", "setting": "[2]; Dose 0.25 nm/cm^2, Time 1 hour", "result": 100, "unit": "%"},
      {"measurement": "Isla mujeres (% dead (SE))", "setting": "[2]; [15]", "result": 100, "unit": "%"},
      {"measurement": "Isla mujeres (% dead (SE))", "setting": "[2]; Dose 2.5 nm/cm^2, Time 1 hour", "result": 100, "unit": "%"},
      {"measurement": "Isla mujeres (% dead (SE))", "setting": "[2]; [16]", "result": 100, "unit": "%"},
      {"measurement": "toxicity to resistant populations compared with standard compounds", "setting": "[2]; summary of Table 2", "result": "more toxic to resistant populations than permethrin, matfluthrin and transfluthrin"},
      {"measurement": "Thai (% dead (SE))", "setting": "[3]; [9]", "result": 100, "unit": "%"},
      {"measurement": "Thai (% dead (SE))", "setting": "[3]; [10]", "result": 98.3, "unit": "%"},
      {"measurement": "Thai (% dead (SE))", "setting": "[3]; [11]", "result": 100, "unit": "%"},
      {"measurement": "Thai (% dead (SE))", "setting": "[3]; [12]", "result": 100, "unit": "%"},
      {"measurement": "Thai (% dead (SE))", "setting": "[3]; Dose 0.25 nm/cm^2, Time 1 hour", "result": 96.6, "unit": "%"},
      {"measurement": "Thai (% dead (SE))", "setting": "[3]; [15]", "result": 100, "unit": "%"},
      {"measurement": "Thai (% dead (SE))", "setting": "[3]; Dose 2.5 nm/cm^2, Time 1 hour", "result": 100, "unit": "%"},
      {"measurement": "Thai (% dead (SE))", "setting": "[3]; [16]", "result": 100, "unit": "%"},
      {"measurement": "spatial repellency, all strains (FIG. 5)", "setting": "[4]", "result": "spatial repellants for all strains"},
      {"measurement": "Houston (% dead (SE))", "setting": "[5]; [9]", "result": 100, "unit": "%"},
      {"measurement": "Houston (% dead (SE))", "setting": "[5]; [10]", "result": 100, "unit": "%"},
      {"measurement": "Houston (% dead (SE))", "setting": "[5]; [11]", "result": 100, "unit": "%"},
      {"measurement": "Houston (% dead (SE))", "setting": "[5]; [12]", "result": 100, "unit": "%"},
      {"measurement": "Houston (% dead (SE))", "setting": "[5]; [13]", "result": 100, "unit": "%"},
      {"measurement": "Houston (% dead (SE))", "setting": "[5]; [14]", "result": 100, "unit": "%"},
      {"measurement": "Houston (% dead (SE))", "setting": "[5]; Dose 0.25 nm/cm^2, Time 1 hour", "result": 100, "unit": "%"},
      {"measurement": "Houston (% dead (SE))", "setting": "[5]; [15]", "result": 100, "unit": "%"},
      {"measurement": "Houston (% dead (SE))", "setting": "[5]; Dose 2.5 nm/cm^2, Time 1 hour", "result": 100, "unit": "%"},
      {"measurement": "Houston (% dead (SE))", "setting": "[5]; [16]", "result": 100, "unit": "%"},
      {"measurement": "contact irritancy and spatial repellency relative to screened compounds (FIG. 3)", "setting": "[6]", "result": "superior contact irritancy and spatial repellency relative to most screened compounds"},
      {"measurement": "contact irritancy (FIG. 1)", "setting": "[7]", "result": "showed contact irritancy at relatively low doses"},
      {"measurement": "contact irritancy, tolerant strain (FIG. 4)", "setting": "[8]", "result": "contact irritants for tolerant strains"}
    ]}
  ]
}
